# Measurements as given in patent US8802674B2, “Aminopyrimidine derivatives as LRRK2 modulators” (Genentech, Inc., priority 2011, dated 2014).
# Biological target: LRRK2 (Homo sapiens (Human), UniProt Q5S007, G2019S)
# Assay: In Vitro LRRK2 LabChip Assay
# Format: biochemical
# Settings: Table 6
# Summary of the method: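 Potency (Ki in μM, IC50 or % inhibition) derived from capillary-electrophoresis separation of phospho- and unphosphorylated fluorescent peptide, with Ki fitted by a tight-binding model.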
# Sequence of LRRK2 (Q5S007 970-2527 G2019S limits assumed): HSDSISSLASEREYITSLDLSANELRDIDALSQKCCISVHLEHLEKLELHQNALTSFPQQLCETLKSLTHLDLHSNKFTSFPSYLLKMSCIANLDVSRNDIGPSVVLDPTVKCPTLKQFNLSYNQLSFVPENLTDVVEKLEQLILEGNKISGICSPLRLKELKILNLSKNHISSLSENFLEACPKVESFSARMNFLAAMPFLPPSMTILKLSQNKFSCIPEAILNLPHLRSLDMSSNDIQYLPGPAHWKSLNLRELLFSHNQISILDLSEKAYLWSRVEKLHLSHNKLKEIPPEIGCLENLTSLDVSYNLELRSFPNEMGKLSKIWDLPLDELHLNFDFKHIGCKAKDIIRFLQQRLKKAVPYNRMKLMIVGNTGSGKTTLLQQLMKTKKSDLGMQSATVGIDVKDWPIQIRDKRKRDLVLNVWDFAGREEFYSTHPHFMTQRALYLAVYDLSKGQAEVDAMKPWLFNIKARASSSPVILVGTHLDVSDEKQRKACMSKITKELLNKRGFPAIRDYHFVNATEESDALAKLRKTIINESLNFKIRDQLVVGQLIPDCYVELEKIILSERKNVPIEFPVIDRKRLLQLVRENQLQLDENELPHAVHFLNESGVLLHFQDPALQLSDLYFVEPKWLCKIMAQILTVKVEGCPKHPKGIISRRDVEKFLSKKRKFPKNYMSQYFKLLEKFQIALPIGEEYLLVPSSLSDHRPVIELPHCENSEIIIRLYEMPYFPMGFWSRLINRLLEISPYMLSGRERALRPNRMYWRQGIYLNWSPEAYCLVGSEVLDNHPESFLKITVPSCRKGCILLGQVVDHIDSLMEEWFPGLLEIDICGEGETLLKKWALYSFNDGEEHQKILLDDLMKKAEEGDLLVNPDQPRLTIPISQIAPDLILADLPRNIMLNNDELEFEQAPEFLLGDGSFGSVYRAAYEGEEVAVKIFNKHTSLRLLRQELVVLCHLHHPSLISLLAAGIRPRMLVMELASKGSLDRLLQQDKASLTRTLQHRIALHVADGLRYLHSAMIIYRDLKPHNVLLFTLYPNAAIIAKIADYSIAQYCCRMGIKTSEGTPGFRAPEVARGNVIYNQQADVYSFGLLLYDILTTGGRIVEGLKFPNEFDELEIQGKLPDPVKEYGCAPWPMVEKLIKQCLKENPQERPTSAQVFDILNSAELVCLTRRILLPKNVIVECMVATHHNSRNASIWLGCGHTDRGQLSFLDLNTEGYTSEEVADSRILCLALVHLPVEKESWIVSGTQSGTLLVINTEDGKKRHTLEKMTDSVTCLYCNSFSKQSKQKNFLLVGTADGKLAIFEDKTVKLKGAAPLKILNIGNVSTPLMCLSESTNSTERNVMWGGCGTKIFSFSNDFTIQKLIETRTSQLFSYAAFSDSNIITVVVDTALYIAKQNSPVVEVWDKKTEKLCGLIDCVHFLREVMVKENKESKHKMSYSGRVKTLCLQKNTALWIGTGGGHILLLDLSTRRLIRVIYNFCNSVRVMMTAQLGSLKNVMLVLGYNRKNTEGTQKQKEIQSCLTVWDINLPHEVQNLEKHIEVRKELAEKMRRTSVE
row,Ki,Structure (SMILES)
1,3.3 nM,"CCN(CC)C(=O)c1ccc(Nc2ncc(C(F)(F)F)c(NC)n2)c(OC)c1 [Example 275, N,N-Diethyl-3-methoxy-4-(4-methylamino-5-trifluoromethyl-pyrimidin-2-ylamino)-benzamide]"
2,0.8 nM,"CNc1nc(Nc2ccc(C(=O)N3CCC(N(C)C)CC3)cc2OC)ncc1C(F)(F)F [Example 276, (4-Dimethylamino-piperidin-1-yl)-[3-methoxy-4-(4-methylamino-5-trifluoromethyl-pyrimidin-2-ylamino)-phenyl]-methanone]"
3,4.9 nM,"CNc1nc(Nc2ccc(C(=O)N3CC(C)OC(C)C3)cc2OC)ncc1C(F)(F)F (stereo not drawn) [Example 277, (2,6-Dimethyl-morpholin-4-yl)-[3-methoxy-4-(4-methylamino-5-trifluoromethyl-pyrimidin-2-ylamino)-phenyl]-methanone]"
4,1.7 nM,"CNc1nc(Nc2ccc(C(=O)N3CCC(C#N)CC3)cc2OC)ncc1C(F)(F)F [Example 278, 1-[3-Methoxy-4-(4-methylamino-5-trifluoromethyl-pyrimidin-2-ylamino)-benzoyl]-piperidine-4-carbonitrile]"
5,2 nM,"CNc1nc(Nc2ccc(C(=O)N3CCN(CC(F)(F)F)CC3)cc2OC)ncc1C(F)(F)F [Example 279, [3-Methoxy-4-(4-methylamino-5-trifluoromethyl-pyrimidin-2-ylamino)-phenyl]-[4-(2,2,2-trifluoro-ethyl)-piperazin-1-yl]-methanone]"
6,1.6 nM,"CNc1nc(Nc2ccc(C(=O)N3CCC(OC)CC3)cc2OC)ncc1C(F)(F)F [Example 280, [3-Methoxy-4-(4-methylamino-5-trifluoromethyl-pyrimidin-2-ylamino)-phenyl]-(4-methoxy-piperidin-1-yl)-methanone]"
7,2.3 nM,"CNc1nc(Nc2ccc(C(=O)NCCOC)cc2OC)ncc1C(F)(F)F [Example 281, 3-Methoxy-N-(2-methoxy-ethyl)-4-(4-methylamino-5-trifluoromethyl-pyrimidin-2-ylamino)-benzamide]"
8,0.6 nM,"CNc1nc(Nc2ccc(C(=O)NC3CCN(C)CC3)cc2OC)ncc1C(F)(F)F [Example 282, 3-Methoxy-4-(4-methylamino-5-trifluoromethyl-pyrimidin-2-ylamino)-N-(1-methyl-piperidin-4-yl)-benzamide]"
9,1.1 nM,"CNc1nc(Nc2ccc(C(=O)NC3CCC(F)(F)CC3)cc2OC)ncc1C(F)(F)F [Example 283, N-(4,4-Difluoro-cyclohexyl)-3-methoxy-4-(4-methylamino-5-trifluoromethyl-pyrimidin-2-ylamino)-benzamide]"
10,12.8 nM,"CNc1nc(Nc2ccc(C(=O)N3CCOCC3)cc2OC2COC2)ncc1Cl [Example 284, [4-(5-Chloro-4-methylamino-pyrimidin-2-ylamino)-3-(oxetan-3-yloxy)-phenyl]-morpholin-4-yl-methanone]"
11,6.5 nM,"CNc1nc(Nc2ccc(C(=O)N3CCOCC3)cc2OCC2CC2)ncc1C(F)(F)F [Example 285, [3-Cyclopropyl-methoxy-4-(4-methylamino-5-trifluoromethyl-pyrimidin-2-ylamino)-phenyl]-morpholin-4-yl-methanone]"
12,5.2 nM,"CNc1nc(Nc2ccc(C(=O)N3CCOCC3)cc2OCC2CCC2)ncc1C(F)(F)F [Example 286, [3-Cyclobutyl-methoxy-4-(4-methylamino-5-trifluoromethyl-pyrimidin-2-ylamino)-phenyl]-morpholin-4-yl-methanone]"
13,2.6 nM,"CNc1nc(Nc2cc(OC)c(C(=O)N3CCOCC3)cc2Cl)ncc1Br [Example 288, [4-(5-Bromo-4-methylamino-pyrimidin-2-ylamino)-5-chloro-2-methoxy-phenyl]-morpholin-4-yl-methanone]"
14,20 nM,"CNc1nc(Nc2ccc(C(=O)N3CCOCC3)cc2C2CC2)ncc1C(F)(F)F [Example 289, [3-Cyclopropyl-4-(4-methylamino-5-trifluoromethyl-pyrimidin-2-ylamino)-phenyl]-morpholin-4-yl-methanone]"
15,7.5 nM,"CNc1nc(Nc2ccc(C(=O)N3CCOCC3)cc2Br)ncc1C(F)(F)F [Example 290, [3-Bromo-4-(4-methylamino-5-trifluoromethyl-pyrimidin-2-ylamino)-phenyl]-morpholin-4-yl-methanone]"
16,17 nM,"CNc1nc(Nc2ccc(C(=O)N3CCOCC3)cc2Cl)ncc1C(F)(F)F [Example 291, [3-Chloro-4-(4-methylamino-5-trifluoromethyl-pyrimidin-2-ylamino)-phenyl]-morpholin-4-yl-methanone]"
17,2 nM,"CNc1nc(Nc2cc(Cl)c(C(=O)N3CCOCC3)cc2OC)ncc1C(F)(F)F [Example 292, [2-Chloro-5-methoxy-4-(4-methylamino-5-trifluoromethyl-pyrimidin-2-ylamino)-phenyl]-morpholin-4-yl-methanone]"
18,2.7 nM,"CNc1nc(Nc2cc(Cl)c(C(=O)N3CCOCC3)cc2OC)ncc1Cl [Example 293, [2-Chloro-4-(5-chloro-4-methylamino-pyrimidin-2-ylamino)-5-methoxy-phenyl]-morpholin-4-yl-methanone]"

row,Ki,Structure (SMILES)
1,9.4 nM,"COc1cc(C(=O)N2CCOCC2)c(Cl)cc1Nc1ncc(Br)c(OC)n1 [Example 294, [4-(5-Bromo-4-methoxy-pyrimidin-2-ylamino)-2-chloro-5-methoxy-phenyl]-morpholin-4-yl-methanone]"
2,6 nM,"CNc1nc(Nc2cc(OC)c(C(=O)N3CCOCC3)cc2Cl)ncc1Cl [Example 295, (5-chloro-4-(5-chloro-4-(methyl-amino)pyrimidin-2-ylamino)-2-methoxy-phenyl)(morpholino) methanone]"
3,2 nM,"CNc1nc(Nc2cc(OC)c(C(=O)N3CCOCC3)cc2Cl)ncc1C(F)(F)F [Example 296, [5-Chloro-2-methoxy-4-(4-methylamino-5-trifluoromethyl-pyrimidin-2-ylamino)-phenyl]-morpholin-4-yl-methanone]"
4,14.5 nM,"CNc1nc(Nc2ccc(C(=O)N3CCOCC3)c(F)c2OC)ncc1C(F)(F)F [Example 297, [2-Fluoro-3-methoxy-4-(4-methylamino-5-trifluoromethyl-pyrimidin-2-ylamino)-phenyl]-morpholin-4-yl-methanone]"
5,2.4 nM,"CNc1nc(Nc2ccc(C(=O)N3CCOCC3)cc2OCCF)ncc1C(F)(F)F [Example 298, [3-(2-Fluoro-ethoxy)-4-(4-methylamino-5-trifluoromethyl-pyrimidin-2-ylamino)-phenyl]-morpholin-4-yl-methanone]"
6,6 nM,"COc1cc(C(=O)N2CCCC2)ccc1Nc1ncc(Cl)c(OC)n1 [Example 299, (4-(5-chloro-4-methoxypyrimidin-2-ylamino)-3-methoxyphenyl) (pyrrolidin-1-yl)methanone]"
7,9 nM,"CCOc1cc(C(=O)N2CCOCC2)c(F)cc1Nc1ncc(C(F)(F)F)c(NC)n1 [Example 300, [5-Ethoxy-2-fluoro-4-(4-methylamino-5-trifluoromethyl-pyrimidin-2-ylamino)-phenyl]-morpholin-4-yl-methanone]"
8,5.1 nM,"CNc1nc(Nc2ccc(C(=O)N(C)CCOC)cc2OC)ncc1C(F)(F)F [Example 301, 3-Methoxy-N-(2-methoxy-ethyl)-N-methyl-4-(4-methylamino-5-trifluoromethyl-pyrimidin-2-ylamino)-benzamide]"
9,2.3 nM,"CCNc1nc(Nc2ccc(C(=O)N(C)CCOC)cc2OC)ncc1C(F)(F)F [Example 302, 4-(4-Ethylamino-5-trifluoromethyl-pyrimidin-2-ylamino)-3-methoxy-N-(2-methoxy-ethyl)-N-methyl-benzamide]"
10,5.9 nM,"CNc1nc(Nc2cc(F)c(C(=O)N(C)CCOC)cc2OC)ncc1C(F)(F)F [Example 303, 2-Fluoro-5-methoxy-N-(2-methoxy-ethyl)-N-methyl-4-(4-methylamino-5-trifluoromethyl-pyrimidin-2-ylamino)-benzamide]"
11,1.6 nM,"CCNc1nc(Nc2cc(F)c(C(=O)N(C)CCOC)cc2OC)ncc1C(F)(F)F [Example 304, 4-(4-Ethylamino-5-trifluoromethyl-pyrimidin-2-ylamino)-2-fluoro-5-methoxy-N-(2-methoxy-ethyl)-N-methyl-benzamide]"
12,3 nM,"CNc1nc(Nc2cc(F)c(C(=O)N3CCC[C@H]3COC)cc2OC)ncc1C(F)(F)F [Example 305, [2-Fluoro-5-methoxy-4-(4-methylamino-5-trifluoromethyl-pyrimidin-2-ylamino)-phenyl]-((S)-2-methoxymethyl-pyrrolidin-1-yl)-methanone]"
13,0.6 nM,"CCNc1nc(Nc2cc(F)c(C(=O)N3CCC[C@H]3COC)cc2OC)ncc1C(F)(F)F [Example 306, [4-(4-Ethylamino-5-trifluoromethyl-pyrimidin-2-ylamino)-2-fluoro-5-methoxy-phenyl]-((S)-2-methoxymethyl-pyrrolidin-1-yl)-methanone]"
14,1.4 nM,"CCNc1nc(Nc2cc(F)c(C(=O)N(CC)CCOC)cc2OC)ncc1C(F)(F)F [Example 307, N-Ethyl-4-(4-ethylamino-5-trifluoromethyl-pyrimidin-2-ylamino)-2-fluoro-5-methoxy-N-(2-methoxy-ethyl)-benzamide]"
15,3.5 nM,"CCN(CCOC)C(=O)c1cc(OC)c(Nc2ncc(C(F)(F)F)c(NC)n2)cc1F [Example 308, N-Ethyl-2-fluoro-5-methoxy-N-(2-methoxy-ethyl)-4-(4-methylamino-5-trifluoromethyl-pyrimidin-2-ylamino)-benzamide]"
16,2.1 nM,"CCNc1nc(Nc2cc(F)c(C(=O)N3CCOCC3)cc2OCC)ncc1C(F)(F)F [Example 309, [5-Ethoxy-4-(4-ethylamino-5-trifluoromethyl-pyrimidin-2-ylamino)-2-fluoro-phenyl]-morpholin-4-yl-methanone]"
17,4.5 nM,"CCNc1nc(Nc2ccc(C(=O)N3CCOCC3)cc2OC(C)C)ncc1C(F)(F)F [Example 310, (4-(4-(ethylamino)-5-(trifluoromethyl)pyrimidin-2-yl-amino)-3-isopropoxyphenyl) (morpholino) methanone]"
18,28 nM,"CCNc1nc(Nc2ccc(C(=O)N3CCOCC3)cc2OC(F)(F)F)ncc1C(F)(F)F [Example 312, (4-(4-(ethylamino)-5-(trifluoromethyl)pyrimidin-2-ylamino)-3-(trifluoromethoxy)phenyl)(morpholino) methanone]"
